From article PMC5234078, “Integrating mass spectrometry with MD simulations reveals the role of lipids in Na^+/H^+ antiporters” (Nature Communications, 2017)

Molecular target: T1, NapA (wild-type NapA, MVV) (Thermus thermophilus, UniProt Q72IM4)
T1 construct: gene TT_C1108; homodimer, 82,450 Da; in C8E4
Experiment: native nESI-MS and tandem MS of protein-lipid complexes; ion mobility unfolding
Details: detergent C8E4, ammonium acetate pH 7.5; annular, non-specific phospholipid binding

T1 sequence (Q72IM4 entry or part of it): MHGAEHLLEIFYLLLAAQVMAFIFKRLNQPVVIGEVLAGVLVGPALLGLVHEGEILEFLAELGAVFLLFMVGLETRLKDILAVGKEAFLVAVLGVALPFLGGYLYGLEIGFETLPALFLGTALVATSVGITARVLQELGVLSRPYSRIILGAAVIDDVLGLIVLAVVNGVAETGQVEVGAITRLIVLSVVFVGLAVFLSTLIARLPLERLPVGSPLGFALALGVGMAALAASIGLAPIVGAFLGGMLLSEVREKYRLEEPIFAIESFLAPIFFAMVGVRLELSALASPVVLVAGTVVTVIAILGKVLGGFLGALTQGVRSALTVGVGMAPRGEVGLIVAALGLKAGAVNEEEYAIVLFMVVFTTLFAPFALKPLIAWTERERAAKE

SMILES | native nESI-MS and tandem MS of protein-lipid complexes; ion mobility unfolding
CCCCCCCC/C=C\CCCCCCCC(=O)O[C@H](COC(=O)CCCCCCCCCCCCCCC)COP(=O)(O)OCCN [PE, 1-palmitoyl-2-oleoyl-glycerophospho-ethanolamine] | NapA with PE show a concentration-dependent increase in the number of lipid adducts
CCCCCCCC/C=C\CCCCCCCC(=O)O[C@H](COC(=O)CCCCCCCCCCCCCCC)COP(=O)(O)OCC(O)CO (some centres unmarked) [PG, 1-palmitoyl-2-oleoyl-phosphatidyl-glycerol] | Interactions with negatively charged PG lipids exhibit higher gas-phase stabilities than with zwitterionic PE
